# Test results as given in US8084621B2, “3-Pyrrolo[b]cyclohexylene-2-dihydroindolinone derivatives and uses thereof” (Jiangsu Simcere Pharmaceutical R&D Co. Ltd., priority 2006, dated 2011).
# Target: T1, PDGFR-β (Homo sapiens, UniProt P09619)
# T1 construct: purchased Cell Signaling Technology CO
# Experiment: Protein kinase activity by ELISA in vitro, PDGFR-β
# Type: biochemical
# Conditions: concentration of 10^−7 mol/L; read-out: kinase inhibition ratio, PDGFR-β
# Excerpt: An ELISA (Enzyme-Linked Immunosorbent Sandwich Assay) procedure may be used to detect and measure the level of protein tyrosine kinase activity. Tyrosine kinases such as VEGFR-2, PDGFR-β and c-Kit etc. catalyze the phosphorylation reaction of ATP and biotin-labeled peptide substrate, which will be ceased when the kinase activity is inhibited. According to the principle of ELISA, a monoclonal antibody can react with phosphorylated substrate specially, so biotin-labeled substrate is binded to streptavidin-coated ELISA plate, and then binded to a HRP-labeled goat anti-mouse antibody. Finally TMB is added for a color reaction and the value of A450-A630 is read by ELISA plate reader. The OD value can reflect the inhibitory activity of the VEGFR-2, PDGFR-β, c-Kit tyrosine kinases etc. treated with the test compounds at the different concentrations. So, the assay may be used to measure the inhibition ratio of the compounds for the tyrosine kinase activity. Similar assays can be designed along the same lines for any PK using techniques well known in the art. Tyrosine kinases such as VEGFR-2, PDGFR-β and c-Kit etc. catalyze the phosphorylation reaction of ATP and biotin-labeled peptide substrate, which will be ceased when the kinase activity is inhibited. According to the principle of ELISA, a monoclonal antibody can react with phosphorylated substrate specially, so biotin-labeled substrate is binded to streptavidin-coated ELISA plate, and then binded to a HRP-labeled goat anti-mouse antibody. Finally TMB is added for a color reaction and the value of A450-A630 is read by ELISA plate reader. The OD value can reflect the inhibitory activity of the VEGFR-2, PDGFR-β c-Kit tyrosine kinases treated with the test compounds at the different concentrations. So, the assay may be used to measure the inhibition ratio of the compounds for the tyrosine kinase activity. Similar assays can be designed along the same lines for any PK using techniques well known in the art. VEGF Receptor 2, PDGF Receptor-beta and c-kit kinase assay kit (include kinase, 1.25M DTT, substrate peptide, 10 mM ATP, P-[…] Mouse antibody, 4×HTScan tyrosine kinase buffer), Cell Signaling Technology CO.; HRP labeled goat anti mouse IgG, Protein Tech CO.; TMB, Pierce CO.; Streptavidin Microtitration Plate, Greiner Bio-one CO.; Infinite M200 Reader, Tecan CO. 1.2.1 Immediately transfer enzyme from -80° C. to ice. Allow enzyme to thaw on ice then at 4° C. and centrifugate transiently to the bottom of centrifuge tube, then lay back on ice quickly 1.2.2 Add 10 μl of DTT (1.25 M) to 2.5 ml of 4×HTScan tyrosine kinase buffer (240 mM HEPES pH 7.5, 20 mM MgCl2, 20 mM MnCl2, 12 μM Na3VO4). Transfer 0.6 ml of DTT/Kinase buffer to each enzyme tube to make 4× reaction Cocktail. Incubate 12.5 μl of the 4× reaction cocktail with 12.5 μl/well prediluted compound of interest for 5 minutes at room temperature, and set blank control, free-enzyme control, negative control and positive control. 1.2.3 Add 10 μl 10 mM ATP to 1.25 ml 6 μM substrate peptide. Dilute the mixture with dH20 to 2.5 ml to make 2×ATP/substrate cocktail. Add 25 μl of 2×ATP/substrate cocktail to 25 μl/well preincubated reaction cocktail/compound. Incubate reaction plate at room temperature for 30 minutes. 1.2.4 Add 50 μl/well stop Buffer (50 mM EDTA, pH 8) to stop the reaction. Transfer 25 μl of each reaction and 75 μl dH2O/well to a 96-well streptavidin coated plate and incubate at room temperature for 60 minutes. Wash three times with 200 μl/well PBS/T(1×PBS, 0.05% Tween-20). 1.2.5 Dilute primary antibody, Phospho-Tyrosine mAb (P-[…]), 1:500 in PBS/T with 1% BSA. Add 100 μl/well primary antibody. Incubate at room temperature for 60 minutes. Wash three times with 200 μl/well PBS/T(1×PBS, 0.05% Tween-20). 1.2.6 Prepare appropriate dilution of HRP labeled secondary antibody, 1:500 in PBS/T with 1% BSA. Add 100 μl/well secondary antibody solution. Incubate at room temperature for 30 minutes. […]
# T1 sequence (P09619 33-1106): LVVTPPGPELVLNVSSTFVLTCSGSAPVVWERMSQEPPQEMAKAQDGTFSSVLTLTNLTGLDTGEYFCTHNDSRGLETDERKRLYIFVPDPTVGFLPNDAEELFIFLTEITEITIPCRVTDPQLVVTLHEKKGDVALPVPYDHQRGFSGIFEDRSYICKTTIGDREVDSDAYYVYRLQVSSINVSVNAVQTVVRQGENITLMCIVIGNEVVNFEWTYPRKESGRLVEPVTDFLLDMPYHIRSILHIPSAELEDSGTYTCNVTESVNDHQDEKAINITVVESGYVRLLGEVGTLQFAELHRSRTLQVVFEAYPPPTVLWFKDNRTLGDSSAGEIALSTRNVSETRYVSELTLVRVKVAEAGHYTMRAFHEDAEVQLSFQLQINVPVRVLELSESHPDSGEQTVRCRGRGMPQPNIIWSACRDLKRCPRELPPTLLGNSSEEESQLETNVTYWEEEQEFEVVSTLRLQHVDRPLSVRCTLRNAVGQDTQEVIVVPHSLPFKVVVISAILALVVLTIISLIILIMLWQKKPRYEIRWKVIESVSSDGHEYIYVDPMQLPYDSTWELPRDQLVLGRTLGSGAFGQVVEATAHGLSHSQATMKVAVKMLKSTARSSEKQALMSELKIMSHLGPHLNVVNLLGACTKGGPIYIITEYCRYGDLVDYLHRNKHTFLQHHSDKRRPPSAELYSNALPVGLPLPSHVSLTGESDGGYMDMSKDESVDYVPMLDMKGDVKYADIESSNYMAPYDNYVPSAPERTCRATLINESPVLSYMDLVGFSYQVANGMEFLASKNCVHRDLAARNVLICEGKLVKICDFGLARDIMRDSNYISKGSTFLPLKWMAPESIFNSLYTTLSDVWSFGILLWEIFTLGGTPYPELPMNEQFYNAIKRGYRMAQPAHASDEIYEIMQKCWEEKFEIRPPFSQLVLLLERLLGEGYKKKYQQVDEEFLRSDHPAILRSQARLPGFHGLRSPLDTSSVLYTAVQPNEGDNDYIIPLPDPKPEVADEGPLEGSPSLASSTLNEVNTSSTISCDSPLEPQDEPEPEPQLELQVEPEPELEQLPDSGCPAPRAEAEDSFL
row,SMILES,inhibition at 0.1 µM
1,"CCN(CC)CCNC(=O)c1c(C)[nH]c2c1CCC/C2=C1/C(=O)Nc2ccc(F)cc21 [I-2, N-(2-(diethylamino)ethyl)-2-methyl-7-[1,2-dihydro-5-fluoro-2-oxo-3H-indol-(Z)-3-ylidene]-4,5,6,7-tetrahydro-1H-indole-3-carboxamide]",90%
2,"CCN(CC)CCNC(=O)c1c(C)[nH]c2c1CCC/C2=C1/C(=O)Nc2ccc(C)cc21 [I-4, N-(2-(diethylamino)ethyl)-2-methyl-7-[1,2-dihydro-5-methyl-2-oxo-3H-indol-(Z)-3-ylidene]-4,5,6,7-tetrahydro-1H-indole-3-carboxamide]",86%
3,"CCN(CC)CCNC(=O)c1c(C)[nH]c2c1CCC/C2=C1/C(=O)Nc2ccccc21 [I-5, N-(2-(diethylamino)ethyl)-2-methyl-7-[1,2-dihydro-2-oxo-3H-indol-(Z)-3-ylidene]-4,5,6,7-tetrahydro-1H-indole-3-carboxamide]",87%
4,"CCN(CC)CCNC(=O)c1c(C)[nH]c2c1CCC/C2=C1/C(=O)Nc2ccc(Cl)cc21 [I-3, N-(2-(diethylamino)ethyl)-2-methyl-7-[1,2-dihydro-5-chloro-2-oxo-3H-indol-(Z)-3-ylidene]-4,5,6,7-tetrahydro-1H-indole-3-carboxamide]",88%

# Second part, the compound after the results:
row,inhibition at 0.1 µM,SMILES
1,85%,"Cc1[nH]c2c(c1C(=O)NCCN(C)C)CCC/C2=C1/C(=O)Nc2ccc(F)cc21 [I-6, N-(2-(dimethylamino)ethyl)-2-methyl-7-[1,2-dihydro-5-fluoro-2-oxo-3H-indol-(Z)-3-ylidene]-4,5,6,7-tetrahydro-1H-indole-3-carboxamide]"
2,87%,"CCN(CC)CC(O)CNC(=O)c1c(C)[nH]c2c1CCC/C2=C1/C(=O)Nc2ccccc21 (stereo not drawn) [I-63, N-(3-(diethylamino)-2-hydroxypropyl)-2-methyl-7-[1,2-dihydro-2-oxo-3H-indol-(Z)-3-ylidene]-4,5,6,7-tetrahydro-1H-indole-3-carboxamide]"
3,89%,"Cc1[nH]c2c(c1C(=O)NCCO)CCC/C2=C1/C(=O)Nc2ccccc21 [I-8, N-(2-hydroxyethyl)-2-methyl-7-[1,2-dihydro-2-oxo-3H-indol-(Z)-3-ylidene]-4,5,6,7-tetrahydro-1H-indole-3-carboxamide]"
4,86%,"Cc1[nH]c2c(c1C(=O)NCCCN(C)C)CCC/C2=C1/C(=O)Nc2ccc(Cl)cc21 [I-7, N-(3-(dimethylamino)propyl)-2-methyl-7-[1,2-dihydro-5-chloro-2-oxo-3H-indol-(Z)-3-ylidene]-4,5,6,7-tetrahydro-1H-indole-3-carboxamide]"
5,85%,"Cc1[nH]c2c(c1C(=O)NCC(O)CN1CCCC1)CCC/C2=C1/C(=O)Nc2ccccc21 (stereo not drawn) [I-70, N-(2-hydroxy-3-(pyrrolidin-1-yl)propyl)-2-methyl-7-[1,2-dihydro-2-oxo-3H-indol-(Z)-3-ylidene]-4,5,6,7-tetrahydro-1H-indole-3-carboxamide]"
